Measurements: US12290496B2, “Compounds for use in preventing or treating athlete overtraining” (TDELTAS LIMITED, priority 2018, dated 2025)

Assays:
[1] = Food (energy) intake during 3-week training period (FIG. 7); type: in vivo, human; settings: placebo energy intake stable
Experimental: (§1) A randomized placebo-controlled (ketone ester versus placebo) intervention study was performed. The study involved a pretest and a posttest with a 3-week training overload period in between (Table 1A). During this 3-week period, subjects received either ketone ester or an isocaloric placebo (long chain triglyceride) after each training session and 30 minutes before sleep. The conditions were blinded to both the subjects and the investigators until completion of all the experiments.
(§2) Immediately following each training session and 30 min before sleep, subjects received a recovery drink (6D Recovery Shake, Medix, Oudenaarde, Belgium) containing 1 g carbohydrates per kg body weight, plus 0.35 g whey protein isolate per kg body weight. Additionally, subjects received 0.35 g per kg body weight of a ketone ester drink or an isocaloric placebo (PL; long chain triglycerides) as a separate drink to be ingested together with the carbohydrate/protein recovery drink. The ketone ester supplement (ΔG®) delivered pure D-β-hydroxybutyrate-R 1,3 butanediol monoester. These nutritional supplements have been extensively tested before (see for instance Cox et al; Cell Metab 24: 256-268, 2016).

[2] = 30-minute simulated cycling time trial (TT30min) performance (FIG. 2); type: in vivo, human
Experimental: as §1
Three weeks prior to the start of the study, subjects underwent a sport medical screening by a certified sports physician. One week later, the subjects participated in three familiarization sessions (Table 1B) to get familiar with the experimental procedures. […] Respiratory gas exchange was measured continuously during the test (Cortex Metalyzer II, Leipzig, Germany), and the highest oxygen uptake measured over a 30-s period defined as the maximal oxygen uptake (VO2max). […]
For the first experimental session, after a 10-min warming up (5 min at 100 W, plus 5 min at 150 W), the subjects performed a TT30min. […] Immediately after completion of the TT, subjects (1) scored the rate of perceived exertion on a 15-point Borg scale and completed a gastrointestinal symptom questionnaire. […]

[3] = 30-minute time trial after 2 h submaximal constant-load exercise bout, day 18 (FIG. 3); type: in vivo, human
Experimental: as §1, §2
FIG. 3 illustrates the 30 minute time trial performance results at the end of a 120 minute constant-load endurance training session at day 18 of the training period. […]

[4] = acute ingestion, elite cyclists; cited from earlier work
[5] = Training volume / work per week and per session (FIG. 10, 11); type: in vivo, human
Experimental: Following the pre-test, participants were enrolled in a 3-week supervised and fully-controlled exercise training program. Each week of the training program consisted of six training days with an interval training in the morning and an endurance training in the evening, for a total of twelve training sessions per week (Table 2).
The number of maximal sprints in the HIIT sessions increased from 4 in week 1, to 5 in week 2 and 6 in the final week. Endurance sessions were performed in the evening and consisted of 150 min of cycling at 65% VO2max. During the 3-week training period the subjects abstained from any exercise other than the exercise prescribed by the study protocol.
as §2

[6] = Circulating (R)-3-hydroxybutyrate levels and gut uptake after consumption of esters; type: in vivo
[7] = Peak heart rate during 90 second all-out isokinetic sprint (FIG. 4); type: in vivo, human; settings: 90 second all-out isokinetic sprints, 3-week training overload period
Experimental: as §1, §2
FIG. 4A gives the absolute values, and FIG. 4B gives the decrease in heart rate (Δ) from the pre-test values. […]

[8] = Submaximal heart rate during first 5 minutes of 30-min time trial (FIG. 5); type: in vivo, human; settings: 3-week training overload period
Experimental: as §1
For the first experimental session, after a 10-min warming up (5 min at 100 W, plus 5 min at 150 W), the subjects performed a TT30min. During the first 5 minutes (t0-t5), the workload was set equal to the mean power output achieved during the TT30min in the last familiarization session. From t5 to t25, the subjects adjusted the workload at 5-min intervals according to their subjective perception of fatigue. From t25 to t30, 1-min adjustments were allowed so as to be able to establish full exhaustion by the end of the TT. Immediately after completion of the TT, subjects (1) scored the rate of perceived exertion on a 15-point Borg scale and completed a gastrointestinal symptom questionnaire. Following 15 min of active recovery (cycling @ 50 W), subjects performed a W30s. One day later, the subjects returned to the laboratory for the second experimental session. During this session a VO2max test was performed. […]

[9] = system: leptin; test: Leptin levels in fasted plasma samples (FIG. 8); type: in vivo, human
Experimental: as §1, §2
Blood samples (2×5 ml) were taken from an arm vein by use of the Venoject® system into BD Vacutainer® tubes. […]

[10] = Blood ketone (β-hydroxybutyrate) levels during 3-week training overload study (FIG. 1); type: in vivo, human; settings: 30 minutes following ingestion; days 6, 13 and 20
Experimental: as §1
Immediately following each training session and 30 min before sleep, subjects received a recovery drink (6D Recovery Shake, Medix, Oudenaarde, Belgium) containing 1 g carbohydrates per kg body weight, plus 0.35 g whey protein isolate per kg body weight. Additionally, subjects received 0.35 g per kg body weight of a ketone ester drink or an isocaloric placebo (PL; long chain triglycerides) as a separate drink to be ingested together with the carbohydrate/protein recovery drink. […]
Furthermore, during TT30min small capillary blood samples (5 μl) were collected at 5-min time intervals via a small puncture in the earlobe. These microsamples were immediately analyzed for blood lactate concentration (Lactate Pro®, Arkray, Kyoto, Japan), blood glucose and βHB levels (GlucoMen Lx plus-meter with Lx glucose or Lx β-ketone strips, Menarini Diagnostics, Firenze, Italy). […]

[11] = DXA scanning before and after 3-week training period (FIG. 6); type: in vivo, human; settings: 3-week training overload period
Experimental: as §1, §2

[12] = system: noradrenaline; test: Urinary total nocturnal noradrenaline excretion (FIG. 9b); type: in vivo, human; settings: before and during 3-week overreaching/overtraining period; consistently elevated in placebo
Experimental: as §1, §2
Total nocturnal urine (10 pm to 8 am) was collected during the night before each experimental session in flasks prepared with 10 ml hydrochloric acid. […]

C[C@@H](O)CCOC(=O)C[C@@H](C)O [ketone ester, (R)-3-hydroxybutyl (R)-3-hydroxybutyrate]
daily energy intake from week 1 to week 3 [1]: spontaneously increased | increase in power output from pre-test ([2]; following 1 week of tapering after 3-week training overload period, not increased in placebo group): ~8% | average power during 30 minute time trial versus placebo ([2]; post-test and follow-up 1): significantly higher | increase in mean power output compared with placebo drink ([3]; day 18 of training period): ~15% | average power in 30 minute time trial versus placebo group ([3]; end of 120 minute constant-load endurance session, day 18): significantly higher | endurance performance [4]: improve endurance performance | workload effected during each single training session versus placebo ([5]; from day 20): higher | training load versus placebo ([5]; week 3): definitely higher | training load versus placebo ([5]; weeks 1 and 2): no difference | circulating levels of (R)-3-hydroxybutyrate in the blood ([6]; in vivo): high circulating levels | level of uptake in the gut ([6]; in vivo): surprisingly high level of uptake | decline in maximum (peak) heart rate from pre-test, versus placebo [7]: significantly less | decline in submaximal heart rate vs. pre-test, versus placebo [8]: significantly less | leptin levels compared to placebo ([9]; all timepoints after the pretest): higher at all timepoints | leptin levels from pretest to posttest ([9]; significantly dropped in placebo group): constant | blood β-hydroxybutyrate levels versus placebo drink [10]: significantly higher | bone mineral content in post-test compared to placebo [11]: increased bone mineral content | changes in body fat compared with placebo [11]: did not alter | changes in lean body mass compared with placebo [11]: did not alter | urinary total nocturnal noradrenaline excretion [12]: stable at baseline levels

(R)-3-hydroxybutyrate-glycerol partial ester
circulating levels of (R)-3-hydroxybutyrate in the blood ([6]; upon consumption of a drink): high circulating levels | level of uptake in the gut ([6]; upon consumption of a drink): surprisingly high level of uptake
